Data taken from article PMC12519824, “Fatal outcome of severe serotonin syndrome and acute respiratory distress syndrome after self-poisoning with paroxetine: a case report” (Journal of Medical Case Reports, 2025).
Read-outs that look alike come from different tables or passages of the source.

How the values were obtained:
[1] = N-acetylcysteine treatment after paracetamol overdose (Prescott regimen); format: in vivo, human; settings: 8000 mg paracetamol (160 mg/kg) ingested; e.g. elevated transaminases
Procedure: (§1) A person with an estimated body weight of 50 kg ingested a total amount of 3150 mg agomelatine (63 mg/kg), 4000 mg paroxetine (80 mg/kg), 8000 mg paracetamol (160 mg/kg), 5000 mg acetylsalicylic acid (100 mg/kg), 1000 mg caffeine (20 mg/kg), and 25,200 mg ibuprofen (504 mg/kg) in suicidal intent (total of 336 pills). […] The patient was reported to be on regular paroxetine therapy. However, the exact dosage and frequency of intake were unknown. […] Owing to reported paracetamol overdose, N-acetylcysteine was administered (Fig. 1) according to the regimen described by Prescott et al.. All other medication—except for paroxetine—was deemed to be no longer clinically relevant by the contacted poison information center, based on the time elapsed since ingestion. […] The patient was then transferred to our tertiary care institution for specialized ARDS treatment. […] Therefore, a symptomatic therapy with olanzapine (10 mg/day) was started. Analgosedation with sufentanil was switched to hydromorphone to prevent further aggregation of serotonin, and corticosteroids were administered in an attempt to enhance paroxetine elimination by CYP2D6 induction. […] Once vv-ECMO was initiated, CytoSorb™ hemoadsorption could easily be added in an attempt to eliminate paroxetine.

[2] = Serum paroxetine level monitoring after self-poisoning; format: in vivo, human
Text: However, the exact dosage and frequency of intake were unknown. […] As no severe life-threatening serotonin syndrome symptoms were present at that point and the patient´s condition kept improving, the decision for supportive treatment was made. […] Once vv-ECMO was initiated, CytoSorb™ hemoadsorption could easily be added in an attempt to eliminate paroxetine.

[3] = Clinical course of paroxetine overdose in multidrug self-poisoning (case report); format: in vivo, human
Procedure: as §1

[4] = indicated value of the test laboratory; ref test laboratory; cited from earlier work
[5] = cited from earlier work
[6] = cited from earlier work; remark: listed apart in the source
[7] = during serotonin syndrome attributed to paroxetine overdose

Structure (SMILES): CC(=O)N[C@@H](CS)C(=O)O [acetylcysteine, N-acetylcysteine]
- development of paracetamol poisoning after treatment [1]: no clinically relevant paracetamol poisoning

Structure (SMILES): Fc1ccc([C@@H]2CCNC[C@H]2COc2ccc3c(c2)OCO3)cc1 [paroxetine]
- time with paroxetine levels in the lethal dose range ([2]; after ingestion of 4000 mg paroxetine): 20 days
- concentration at 8 day ([2]; human, serum, oral, day 8 after ingestion of 4000 mg paroxetine (80 mg/kg), multidrug poisoning, one patient): 3410 ng/mL
- clinical toxicity after overdose ([3]; 4000 mg paroxetine with co-ingested drugs, person): severe serotonin syndrome complicated by acute respiratory distress syndrome
- outcome ([3]; 4000 mg paroxetine, despite CytoSorb, corticosteroids, olanzapine 10 mg/day and intensive care): the patient died on day 20 postingestion
- onset of serotonin syndrome (day after ingestion) ([3]; 4000 mg paroxetine, persisted until death on day 20): 5 days
- recurrent fever [3, 7]: up to 39.5 °C
- tachycardia [3, 7]: up to 142 bpm
- hypotension ([3]; during serotonin syndrome attributed to paroxetine overdose, printed 'hypotension up to', catecholamines needed): up to 82/52
- critical value of paroxetine level [4]: > 120 ng/mL
- therapeutic range of paroxetine level [4]: 20 to 65 ng/mL
- plasma protein binding ([5]; at therapeutic doses): 95%
- therapeutic half-life [5]: 7 to 37 h
- volume of distribution [5]: 17 L/kg
- prolonged half-life in poisoning ([5]; poisoning with a dose of 1 g paroxetine): 220 h
- prolonged half-life in poisoning ([5]; poisoning with a dose of 2 g paroxetine): 190 h
- complication of poisoning in a previous case report ([6]; paroxetine poisoning): severe ARDS
- adverse event with therapeutic intake in one patient ([6]; stopped after paroxetine discontinuation): recurrent ARDS

Structure (SMILES): COc1ccc(C(CN(C)C)C2(O)CCCCC2)cc1 (stereo not shown) [venlafaxine]
- adverse events after intentional overdose in a case report [6]: tremors, muscle rigidity, and sustained ankle clonus, followed by ARDS
